One data set deals with cSrc (Homo sapiens, UniProt P12931). Conditions: inhibitor 10 μM; reported by Sadhu et al.; cited from earlier work.
The target of the next data set is PKCβII (Homo sapiens, UniProt P05771). Conditions: inhibitor 10 μM; reported by Sadhu et al.; cited from earlier work.
A further data set has as its target PKCα (Homo sapiens, UniProt P17252). Particulars: inhibitor 10 μM; reported by Sadhu et al.; cited from earlier work.
Data set [1] concerns Akt phosphorylation in HUVECs. In words: Akt phosphorylation in TNFα-stimulated HUVECs (Western blot). Type of data set: cell-based, human. Conditions: 2 μM. (In general: Immunoblotting shows a protein as a band on a membrane.)
In another data set the target is CHK1 (Homo sapiens, UniProt O14757). Particulars: inhibitor 10 μM; reported by Sadhu et al.; cited from earlier work.
CHK1, sequence (O14757 whole entry, species assumed): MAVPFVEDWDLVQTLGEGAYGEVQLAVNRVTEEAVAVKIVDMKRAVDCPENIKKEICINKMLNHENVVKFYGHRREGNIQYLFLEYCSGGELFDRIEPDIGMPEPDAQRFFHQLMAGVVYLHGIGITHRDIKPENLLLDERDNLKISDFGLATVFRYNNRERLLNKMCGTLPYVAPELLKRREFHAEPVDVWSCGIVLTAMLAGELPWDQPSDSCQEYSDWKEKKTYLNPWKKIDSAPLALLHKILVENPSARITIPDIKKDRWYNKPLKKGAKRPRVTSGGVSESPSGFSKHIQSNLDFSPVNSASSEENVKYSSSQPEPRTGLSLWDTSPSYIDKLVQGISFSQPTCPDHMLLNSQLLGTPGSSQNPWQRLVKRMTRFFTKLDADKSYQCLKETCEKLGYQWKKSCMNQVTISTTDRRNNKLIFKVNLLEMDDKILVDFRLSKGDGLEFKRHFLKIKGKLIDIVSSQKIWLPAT
Another data set deals with TNFα-stimulated HUVECs. In words: Neutrophil tethering to TNFα-stimulated HUVECs, parallel plate flow chamber. The class given is cell-based, human. Conditions: for reduction of neutrophil tethering to HUVECs pre-incubated with inhibitor: 2 μM, vs vehicle. Here is the method: First, the effect of inhibiting PI3Kδ in endothelial cells was examined. Human umbilical vein endothelial cells (HUVECs) (3-4 passages; Cambrex Inc., East Rutherford, N.J.) grown on fibronectin-coated glass cover slips were pretreated with an inhibitor in accordance with the invention (2 μM) or vehicle control for 1 hour prior to being stimulated with TNFα (5 ng/ml, 4 h). Stimulation with TNFα induces expression of E-selectin by the endothelial cells. Peripheral blood neutrophils from healthy volunteers were isolated from whole blood by dextran sedimentation followed by density separation over Ficoll-Hypaque and hypotonic lysis. Approval was obtained from the Washington University Institutional Review Board for these studies. Informed consent was provided according to the Declaration of Helsinki. […] In additional experiments where leukocytes were pre-treated with an inhibitor of the invention as described above, the HUVECS were pre-incubated with mAb CL3 (50 μg/ml, 15 min) to block E-selectin binding. […] Endothelial cells therefore recruit leukocytes at least in part through selectins.

Data set [2] is described as follows: Number of circulating neutrophils in treated mice. Conditions: inhibitor treated animals. Type of data set: in vivo. From the text:
The reduction in cell adhesion in these animals was not due to inhibitor-induced leukopenia as the number of circulating neutrophils was similar in both the control and experimental groups (2,857.3±803 and 2,730.7±1132.6 for control and inhibitor treated animals, respectively). The absolute number of circulating neutrophils in animals deficient in PI3Kδ was 2,997.7±776.1 (n=8).

The subject of a further data set is neutrophils. Particulars: absence of hemodynamic forces; Sadhu et al.; cited from earlier work.
The target in the next data set is PDK1 (Homo sapiens, UniProt O15530). In words: Protein kinase/phosphatase panel: PDK1. Conditions: inhibitor 10 μM; 100 μM ATP. Type of data set: biochemical.
PDK1, sequence (O15530 whole entry): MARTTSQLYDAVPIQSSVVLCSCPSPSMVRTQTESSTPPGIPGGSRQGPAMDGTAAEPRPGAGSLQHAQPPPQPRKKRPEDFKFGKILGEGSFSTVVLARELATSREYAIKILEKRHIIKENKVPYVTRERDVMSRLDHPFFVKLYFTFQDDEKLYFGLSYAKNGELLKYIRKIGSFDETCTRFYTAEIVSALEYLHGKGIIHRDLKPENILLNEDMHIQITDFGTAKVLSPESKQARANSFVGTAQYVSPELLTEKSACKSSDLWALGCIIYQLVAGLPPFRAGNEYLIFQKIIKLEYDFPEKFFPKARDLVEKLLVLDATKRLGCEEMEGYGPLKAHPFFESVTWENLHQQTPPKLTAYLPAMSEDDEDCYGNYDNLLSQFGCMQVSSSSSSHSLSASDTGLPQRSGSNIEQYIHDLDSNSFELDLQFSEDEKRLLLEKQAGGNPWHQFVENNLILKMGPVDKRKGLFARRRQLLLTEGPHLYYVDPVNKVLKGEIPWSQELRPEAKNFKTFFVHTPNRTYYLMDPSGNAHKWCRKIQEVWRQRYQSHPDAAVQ
In the next data set the target is DNA-PK (Homo sapiens, UniProt P78527). Particulars: inhibitor 10 μM; reported by Sadhu et al.; cited from earlier work.
The next data set has as its target P70S6K (Homo sapiens, UniProt P23443). In words: Protein kinase/phosphatase panel: P70S6K. Type of data set: biochemical. Conditions: inhibitor 10 μM; 100 μM ATP.
Data set [3] can be described thus: Plasma concentration of the compound after oral administration. Type of data set: in vivo, mice. Particulars: when LTB4 was applied. Here is the method: Animals received a single oral dose of either a compound in accordance with the invention (25 mg/kg for mice and 20 or 40 mg/kg for rats) or vehicle (PEG-400). Blood samples were subsequently drawn at indicated time points and plasma concentration of the compound determined after liquid-liquid extraction by LC/MS. The lower quantification limit was 50 ng/ml. Plasma samples from control animals (vehicle alone) were used as the blank control.

Another data set has as its target ZAP-70 (Homo sapiens, UniProt P43403). In words: Protein kinase/phosphatase panel: ZAP-70. The class given is biochemical. Conditions: inhibitor 10 μM; 100 μM ATP.
The next data set has as its target PKC-θ (Homo sapiens, UniProt Q04759). In words: Protein kinase/phosphatase panel: PKC-θ. The class given is biochemical. Particulars: inhibitor 10 μM; 100 μM ATP.

PKC-θ, sequence (Q04759 whole entry): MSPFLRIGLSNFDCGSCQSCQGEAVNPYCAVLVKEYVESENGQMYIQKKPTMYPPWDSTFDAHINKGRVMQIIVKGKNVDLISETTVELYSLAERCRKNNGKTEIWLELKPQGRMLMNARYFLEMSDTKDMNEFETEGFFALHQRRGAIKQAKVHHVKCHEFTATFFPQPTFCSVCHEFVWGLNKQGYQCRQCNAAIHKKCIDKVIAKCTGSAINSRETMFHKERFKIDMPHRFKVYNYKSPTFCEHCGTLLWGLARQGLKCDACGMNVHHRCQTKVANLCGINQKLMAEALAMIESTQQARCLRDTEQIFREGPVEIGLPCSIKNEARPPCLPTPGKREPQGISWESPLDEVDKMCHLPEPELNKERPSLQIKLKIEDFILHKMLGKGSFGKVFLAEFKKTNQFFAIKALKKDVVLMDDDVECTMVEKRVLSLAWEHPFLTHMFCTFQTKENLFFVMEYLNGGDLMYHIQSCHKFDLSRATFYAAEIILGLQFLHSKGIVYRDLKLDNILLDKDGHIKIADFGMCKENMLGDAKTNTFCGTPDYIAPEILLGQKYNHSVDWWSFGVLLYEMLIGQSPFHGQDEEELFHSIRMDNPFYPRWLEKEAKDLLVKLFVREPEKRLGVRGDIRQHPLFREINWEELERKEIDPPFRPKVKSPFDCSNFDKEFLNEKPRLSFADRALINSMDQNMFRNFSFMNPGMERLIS
PKCβII, sequence (P05771 1-673 isoform P05771-2): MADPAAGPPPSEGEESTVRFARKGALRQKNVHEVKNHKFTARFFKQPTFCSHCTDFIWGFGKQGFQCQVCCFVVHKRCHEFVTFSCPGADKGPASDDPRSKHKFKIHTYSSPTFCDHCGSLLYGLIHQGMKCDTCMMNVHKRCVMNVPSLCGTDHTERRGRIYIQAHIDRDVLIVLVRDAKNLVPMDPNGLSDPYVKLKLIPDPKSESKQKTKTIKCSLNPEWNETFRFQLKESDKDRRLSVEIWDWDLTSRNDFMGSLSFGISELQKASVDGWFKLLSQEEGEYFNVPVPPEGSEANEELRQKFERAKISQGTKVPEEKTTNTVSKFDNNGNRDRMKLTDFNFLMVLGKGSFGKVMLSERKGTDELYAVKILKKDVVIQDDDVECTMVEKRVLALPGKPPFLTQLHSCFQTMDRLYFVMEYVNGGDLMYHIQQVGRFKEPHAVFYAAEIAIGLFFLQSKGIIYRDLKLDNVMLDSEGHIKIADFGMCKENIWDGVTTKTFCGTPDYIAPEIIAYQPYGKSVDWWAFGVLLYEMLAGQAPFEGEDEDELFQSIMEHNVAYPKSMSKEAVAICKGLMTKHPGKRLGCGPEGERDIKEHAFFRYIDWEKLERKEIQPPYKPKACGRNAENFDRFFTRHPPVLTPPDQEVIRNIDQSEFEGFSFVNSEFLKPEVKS
ZAP-70, sequence (P43403 whole entry, species assumed): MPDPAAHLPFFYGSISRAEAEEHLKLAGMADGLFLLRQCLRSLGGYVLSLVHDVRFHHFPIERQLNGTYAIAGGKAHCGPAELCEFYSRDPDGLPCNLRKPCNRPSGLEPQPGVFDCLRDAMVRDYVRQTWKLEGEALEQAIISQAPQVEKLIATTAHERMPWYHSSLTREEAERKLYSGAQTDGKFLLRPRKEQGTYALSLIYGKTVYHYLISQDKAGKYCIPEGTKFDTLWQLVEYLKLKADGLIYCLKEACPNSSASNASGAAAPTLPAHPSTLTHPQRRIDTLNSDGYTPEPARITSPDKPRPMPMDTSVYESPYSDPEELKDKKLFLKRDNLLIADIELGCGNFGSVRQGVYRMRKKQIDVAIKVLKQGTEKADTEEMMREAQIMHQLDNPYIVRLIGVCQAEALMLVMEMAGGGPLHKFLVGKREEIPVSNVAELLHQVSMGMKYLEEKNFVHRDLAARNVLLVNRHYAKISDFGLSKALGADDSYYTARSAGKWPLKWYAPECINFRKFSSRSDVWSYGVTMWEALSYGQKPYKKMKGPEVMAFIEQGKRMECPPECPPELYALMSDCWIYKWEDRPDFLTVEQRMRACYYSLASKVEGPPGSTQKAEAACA
P70S6K, sequence (P23443 whole entry): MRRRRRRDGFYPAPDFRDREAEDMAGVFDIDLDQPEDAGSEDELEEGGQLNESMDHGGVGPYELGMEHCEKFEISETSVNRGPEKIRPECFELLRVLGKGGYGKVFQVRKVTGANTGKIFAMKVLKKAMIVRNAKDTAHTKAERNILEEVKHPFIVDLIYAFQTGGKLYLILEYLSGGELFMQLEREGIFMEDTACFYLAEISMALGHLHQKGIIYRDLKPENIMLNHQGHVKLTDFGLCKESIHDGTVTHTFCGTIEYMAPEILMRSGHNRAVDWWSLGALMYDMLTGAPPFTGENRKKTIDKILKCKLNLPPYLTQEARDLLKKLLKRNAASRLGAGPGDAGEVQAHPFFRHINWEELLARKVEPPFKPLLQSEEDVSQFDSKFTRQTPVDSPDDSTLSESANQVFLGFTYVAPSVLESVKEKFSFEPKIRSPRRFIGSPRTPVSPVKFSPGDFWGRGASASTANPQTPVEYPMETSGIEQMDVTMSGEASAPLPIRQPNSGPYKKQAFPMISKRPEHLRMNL
cSrc, sequence (P12931 whole entry, species assumed): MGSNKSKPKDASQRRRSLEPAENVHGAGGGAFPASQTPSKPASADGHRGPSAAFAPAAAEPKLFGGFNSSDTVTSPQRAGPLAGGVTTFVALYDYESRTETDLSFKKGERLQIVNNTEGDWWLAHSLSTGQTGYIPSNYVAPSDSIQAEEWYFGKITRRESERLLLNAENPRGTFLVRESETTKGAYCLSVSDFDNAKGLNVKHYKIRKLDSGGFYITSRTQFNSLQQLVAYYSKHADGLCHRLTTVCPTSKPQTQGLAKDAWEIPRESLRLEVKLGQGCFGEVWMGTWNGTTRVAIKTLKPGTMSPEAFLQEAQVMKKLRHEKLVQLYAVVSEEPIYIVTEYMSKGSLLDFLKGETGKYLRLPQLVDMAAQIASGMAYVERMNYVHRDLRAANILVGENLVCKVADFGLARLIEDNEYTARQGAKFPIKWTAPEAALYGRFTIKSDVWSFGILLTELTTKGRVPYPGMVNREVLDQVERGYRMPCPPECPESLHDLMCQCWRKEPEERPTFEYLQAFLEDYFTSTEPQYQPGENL

Turning to `Cc1ccccc1-n1c(Cn2cnc3c(N)ncnc32)nc2cccc(C)c2c1=O`, the “Activity (% of control) ± SD” value is “No inhibition*” on cSrc; “No inhibition*” on PKCβII; “No inhibition*” at PKCα; “No inhibition*” on CHK1; 91.5 ± 2.1 % of control on PDK1; “No inhibition*” at DNA-PK. Moreover, the “Activity (% of control) ± SD” value on P70S6K is on record as 98.5 ± 0.7 % of control; on ZAP-70, 97.5 ± 13.4 % of control; at PKC-θ it was 97 ± 5.5 % of control. Further, the “phosphorylation of Akt (TNFα-mediated signaling)” value in data set [1] was “reduction in phosphorylation of Akt”. Further, the figures for the “reduction of neutrophil tethering to HUVECs pre-incubated with inhibitor” value with TNFα-stimulated HUVECs (wall shear rate 100 s^−1) and in the data set on TNFα-stimulated HUVECs (wall shear rate 300 s^−1) were 28% and 40%, respectively. Further, the “neutrophil tethering after treatment of neutrophils (not HUVECs) with inhibitor” value in the data set with TNFα-stimulated HUVECs (identical concentration (2 μM), HUVEC pre-treated with only TNFα) is “did not reduce neutrophil tethering”. Also, the “number of circulating neutrophils” value in data set [2] is listed as 2,730.7±1132.6. Moreover, in the data set on neutrophils, the “fMLP-induced chemotaxis on an ICAM-1 substrate in vitro” value was “diminished fMLP-induced chemotaxis”. Further, in data set [3], the “inhibitor concentration (mean plasma)” value was determined as 12.8 ± 3.7 µM.
